Measurements from patent US20110152342A1, “STABILIZED PHARMACEUTICAL COMPOSITION” (priority 2008, published 2011).

Assay: Critical relative humidity of sugar alcohols determined at 37° C.
Assay type: physicochemical
Settings: lowest humidity at which an increase in moisture content is observed after 72 hours
Method: As such sugar alcohol, preferably used herein include those having a critical relative humidity as determined at 37° C. of not less than 70% and further preferably used herein are those having a critical relative humidity as determined at 37° C. of not less than 85%. […] For instance, the critical relative humidity can be determined by introducing samples (obtained after drying at 80° C. overnight) of about 1 g each into weighing bottles, placing them in thermo-hygrostats which have been set at the following relative humidity (RH) values: 37° C./40% RH, 37° C./45% RH, 37° C./55% RH, 37° C./65% RH, 37° C./70% RH, 37° C./75% RH, 37° C./80% RH, 37° C./85% RH, 37° C./90% RH, 37° C./95% RH and 37° C./98% RH, respectively (all of the chambers are of the same type: ETAC FX201P), allowing them to stand under such conditions over 72 hours, calculating the increase in the moisture content of each sample at this stage, and determining the lowest humidity at which an increase in the moisture content is observed, the resulting lowest humidity being defined to be the critical relative humidity of the sugar alcohol thus tested. […] The examples of such sugar alcohols having a critical relative humidity, as determined at 37° C., of not less than 70% are erythritol, xylitol, mannitol, maltitol, lactitol, and the like. […]

critical relative humidity | Structure (SMILES)
not less than 98% | OC[C@@H](O)[C@@H](O)[C@H](O)[C@H](O)CO [mannitol]
65% | OC[C@@H](O)[C@@H](O)[C@H](O)[C@@H](O)CO [sorbitol]
